For one cell line, relative viability results are on record in the supplement of paper PMC10307832.

What all share (test): relative viability (nuclei count vs DMSO), 5 days (fraction); higher = more cells survive
Compound in the experiment “Alpelisib + Bortezomib”: Cc1nc(NC(=O)N2CCC[C@H]2C(N)=O)sc1-c1ccnc(C(C)(C)C(F)(F)F)c1 [Alpelisib] + CC(C)C[C@H](NC(=O)[C@H](Cc1ccccc1)NC(=O)c1cnccn1)B(O)O [Bortezomib] (partner 0.002 µM)
An outline of the steps: (§1)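 Cells from lung cancer lines were seeded into 1536-well plates and, one day later, dosed by pin tool. Treatments were either a single drug or a fixed dose of an anchor drug with five library-drug doses (not always all listed) in √10 steps. After 5 days, nuclei were stained in a one-step fixation (final 0.05% Triton X-100, 1% formaldehyde, 1 ug/ml Hoechst) and counted on 4× images, and relative viability is the treated-to-vehicle nuclei ratio, as the median of duplicate plates.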

Compound in the experiment “Alpelisib + Decitabine”: Cc1nc(NC(=O)N2CCC[C@H]2C(N)=O)sc1-c1ccnc(C(C)(C)C(F)(F)F)c1 [Alpelisib] + Nc1ncn([C@H]2C[C@H](O)[C@@H](CO)O2)c(=O)n1 [Decitabine] (partner 2 µM)
In short, it runs like this: as §1

Compound in the experiment “Alpelisib + Phenformin”: Cc1nc(NC(=O)N2CCC[C@H]2C(N)=O)sc1-c1ccnc(C(C)(C)C(F)(F)F)c1 [Alpelisib] + N=C(N)NC(=N)NCCc1ccccc1 [Phenformin] (partner 250 µM)
In short, it runs like this: as §1

Compound in the experiment “OSI-027 + Bortezomib”: COc1cccc2cc(-c3nc([C@H]4CC[C@H](C(=O)O)CC4)n4ncnc(N)c34)[nH]c12 [OSI-027] + CC(C)C[C@H](NC(=O)[C@H](Cc1ccccc1)NC(=O)c1cnccn1)B(O)O [Bortezomib] (partner 0.002 µM)
An outline of the steps: as §1

In the case of UMC-11, the relative viability in the experiment with Alpelisib + Bortezomib (first compound 0.04 µM) turned out to be 0.677; with Alpelisib + Bortezomib (first compound 0.1265 µM), 0.981; with Alpelisib + Bortezomib (first compound 0.4 µM), 0.672; in the experiment with Alpelisib + Bortezomib (first compound 1.265 µM), 0.734; with Alpelisib + Bortezomib (first compound 4 µM) it was 0.465; in the experiment with Alpelisib + Decitabine (first compound 0.04 µM) it was 0.513. Besides, the relative viability in the experiment with Alpelisib + Decitabine (first compound 0.1265 µM) came to 0.636; with Alpelisib + Decitabine (first compound 0.4 µM), 0.693; with Alpelisib + Decitabine (first compound 1.265 µM), 0.535; with Alpelisib + Decitabine (first compound 4 µM) it was 0.745; with Alpelisib + Phenformin (first compound 0.04 µM), 0.302; with Alpelisib + Phenformin (first compound 0.1265 µM) it was 0.325. Also, the relative viability in the experiment with Alpelisib + Phenformin (first compound 0.4 µM) was found to be 0.326; in the experiment with Alpelisib + Phenformin (first compound 1.265 µM), 0.31; in the experiment with Alpelisib + Phenformin (first compound 4 µM) it was 0.262; with OSI-027 + Bortezomib (first compound 0.01 µM) it was 0.565; in the experiment with OSI-027 + Bortezomib (first compound 0.03162 µM), 0.646; in the experiment with OSI-027 + Bortezomib (first compound 0.1 µM) it was 0.696. In addition, the relative viability with OSI-027 + Bortezomib (first compound 0.3162 µM) is 0.668; with OSI-027 + Bortezomib (first compound 1 µM), 0.503.
